Laboratory results as given in patent US9201014B2, “Development of photostable near-IR cyanine dyes for in vivo imaging” (National University of Singapore, priority 2010, dated 2015).

Tests used:
[1] = Time-course fluorescence measurements (photobleaching rate constants) of CyN and CyNA derivatives in HEPES buffer; type: physicochemical; conditions: 10 μM in 10 mM HEPES pH 7.4, 1% DMSO; pseudo-first order
Description: Values were fitted to a non-linear regression one-phase exponential decay (GraphPad Prism 5.0). Detailed statistics for the one-phase decay analysis of the CyN compounds and 1 follow: Photodecomposition rate constants were determined by plotting -ln(F/F0) vs time, and calculated using a pseudo-first order rate equation. See […]., et al., Photochem. Photobiol. 2000, 72, 392-398.

[2] = Absorbance/fluorescence maxima, quantum yields and extinction coefficients of CyN compounds; type: physicochemical
Description: The absorbance and fluorescence maximum wavelengths and extinction coefficients of CyN-111, 165, 272 and 295 were measured using 10-μM solutions of CyN-111, CyN-165, CyN-272 or CyN-295 in 10 mM HEPES buffer (pH 7.4) containing 1% DMSO. Quantum yields were measured in DMSO, using Cardiogreen as a standard (φ: 0.13, in DMSO).

[3] = Photophysical properties of CyNE790 and ICG-sulfo-OSu; type: physicochemical; conditions: for Quantum Yield (DMSO): ICG as standard; for Quantum Yield (aqueous media) / ε (aqueous media): PBS pH 7.3, 0.1% DMSO
Description: FIG. 7A is an absorbance spectrum of 10-μM solutions of CyNA-414, CyNE790, ICG and ICG-sulfo-OSu in DMSO and PBS.
FIG. […]
After corroborating the spectral properties of CyNE790 as a fluorescent NIR dye, its applicability for protein conjugation was assessed by comparing CyNE790 to ICG-sulfo-OSu, the commercially available succinidimyl ester of ICG. […] However, the application of ICG to molecular imaging has been limited because its fluorescence is drastically quenched after protein conjugation.

[4] = Formation of aggregates: absorbance spectrum in DMSO vs PBS; type: physicochemical; conditions: for formation of aggregates in aqueous solution: spectral profile DMSO vs PBS
[5] = Photobleaching of CyNE790 and ICG-sulfo-OSu in PBS; type: physicochemical; conditions: for maximum relative fluorescence units (rfu): photobleaching experiments
Description: CyNE790 was also compared to ICG-sulfo-OSu, a commercially available succinimidyl ester of ICG (for chemical structures of CyNE790 and ICG-sulfo-OSu, see FIG. 8).

[6] = test system: primary mouse peritoneal cavity cells; test: Validation of macrophage selectivity (peritoneal cells, Raw 264.7, splenocytes); type: cell-based; conditions: 1 μM, 1 hour
Description: To validate the selectivity of CyNA-374, primary mouse peritoneal cavity cells were prepared. The identity of the mouse peritoneal cells was confirmed with CD11b macrophage antibody and flow cytometry. Next, the mouse peritoneal cells, Raw 264.7 cells and splenocytes were seeded in parallel. The following day, the cells were incubated with 1 μM CyNA-374 for 1 hour, then analyzed immediately using fluorescence microscopy.

[7] = Absorbance and fluorescence maximum wavelengths and quantum yields of the CyNA library; type: physicochemical; conditions: for λabs, absorbance maximum wavelength / λem, fluorescence maximum wavelength: CyNA library; for φ, quantum yield: in DMSO, Cardiogreen as standard
Summary of the method: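 Absorption and emission maxima and quantum yields of the 80-member amine-derivatized CyNA library were measured on a plate spectrophotometer.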

[8] = Primary screening of photostability of the CyNA library (time-course fluorescence, 8 h); type: physicochemical; parameters: F/Fo, fluorescent intensity at 8 hours vs 0 hours: unit: %; conditions: 10 μM in HEPES 100 mM pH 7.4, 2% DMSO
Summary of the method: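 CyNA dyes at 10 μM in 100 mM HEPES pH 7.4 with 2% DMSO irradiated by xenon lamp for 8 h. Fluorescence (ex/em 790-820 nm) read every 10 min; stability given as F8h/Fo.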

[9] = test system: M1 macrophages (LPS-activated Raw 264.7 cells); test: Staining of activated (M1) macrophages; type: cell-based, mouse; conditions: 1 μM, 1 hour
Description: To determine if CyNA-374 could stain activated macrophages, Raw 264.7 cells were activated to M1 macrophages. Raw 264.7 cells were plated at 5×10^6 cells/well and allowed to adhere. In some experiments, the cells were then starved for 12 hours, meaning that cells were washed with phosphate-buffered saline (PBS) and incubated in DMEM supplemented with 1% penicillin/streptomycin for 12 hours, but without 10% FBS. After 12 hours, the cells were exposed to 60 ng/mL LPS and, at the 24-hour time point, the supernatant from the cells stimulated by LPS was collected for measurement of NO2 using the Griess reaction. The unstimulated Raw 264.7 cells produced approximately 8.5 μmol/L NO2, while the stimulated Raw 264.7 (or M1) cells produced approximately 45 μmol/L NO2. The M1 cells were seeded in parallel with the unactivated Raw 264.7 cells and the splenocytes. The cells were incubated with 1 μM CyNA-374 for 1 hour, then analyzed using fluorescence microscopy.

[10] = test system: mouse macrophage Raw 264.7 cell line; test: High-throughput cell imaging-based screen of CyNA library; conditions: Raw 264.7 vs mouse splenocytes
Description: In order to identify CyNA probes that could selectively stain mouse macrophage Raw 264.7 cell line (a mouse leukemic monocyte macrophage cell line), a library of CyNA compounds was assayed in a high-throughput cell imaging-based screen. The cell images were recorded using an automated imaging microscope system, IMAGEXPRESS MICRO™, and the fluorescent images were analyzed by cellular fluorescence intensity using METAXPRESS® image processing software.

[11] = Fluorescence and photostability of dye-labeled EGFR-IgG2a antibodies; type: physicochemical; conditions: conjugated to EGFR-IgG2a, vs ICG label
Description: To compare CyNE790 and ICG-sulfo-OSu for in vivo imaging studies, each reactive ester was conjugated to a monoclonal anti-epidermal growth factor receptor (EGFR) antibody.
100 μg of anti-EGFR-IgG2a were washed with PBS using a Microcon 3K filter (Millipore), and re-suspended in 100 μL of Na2CO3—NaHCO3 buffer (pH 9.2). 20 equiv of CyNE790 or ICG-sulfo-OSu (typically 1.0-1.2 μL of a 10 mM solution in DMSO) were added and the whole mixture was shaken in the dark for 2 hours. The excess dye was removed by washing with PBS (3×500 μL) using a Microcon 3K filter (Millipore) (3 rounds at 14,000 rpm at 4° C. for 60 min).
[…] in PBS (pH 7.3) were fixed in a glass coverslide, and irradiated with a diode laser (95 mW, 740 nm, time frame: 500 ms, no delay). Emission was recorded with a NIR-enhanced CCD camera (Andor Technology) adapted to an Eclipse Ti-U microscope (40× magnification, filter cube 750/800), and images were processed using the software NIS-Elements 3.10. The resulting values are represented as means (n=3), and fitted to a non-linear regression one-phase exponential decay (GraphPad Prism 5.0).

[12] = Rates of photobleaching of CyNA-414 and CyN-414; type: physicochemical; conditions: for k, rate of photobleaching: 10 μM in 10 mM HEPES pH 7.4, 1% DMSO, xenon flash lamp, 12 hours
Description: 10-μM solutions of CyNA-414 and CyN-414 in 10 mM HEPES buffer (pH 7.4) containing 1% DMSO were placed in a 96-well black plate, and fluorescence intensity measurements (n=3) were recorded every 10 minutes for a total period of 12 hours (excitation-emission: 640-750 nm for CyN-414, and 790-820 nm for CyNA-414) under a xenon flash lamp. Values were fitted to a non-linear regression one-phase exponential decay (GraphPad Prism 5.0).

[13] = in DMSO; cited from earlier work
[14] = type: physicochemical
Description: As a primary evaluation of photo stability, the decrease in fluorescence intensity of the 80 CyNA compounds was measured (see Table 2). The average decrease in fluorescence intensity after 8 hours of irradiation by a xenon lamp was approximately 18%. A subset of the most photostable compounds (i.e., F/Fo reported in Table 2 was greater than or equal to 95) was examined under stronger irradiation in various buffers.
10-μM CyNA solutions in 10 mM HEPES buffer (pH 7.4) or PBS (pH 7.3) containing 1% DMSO were placed in a 96-well black plate, and irradiated for periods of 15 minutes up to 2 hours with a high-intensity UV lamp (100 W, 365 nm) at a 2-cm distance. Values are represented as means (n=2), and fitted to a non-linear regression one-phase exponential decay (GraphPad Prism 5.0). Results not shown.

[15] = 10 μM in 10 mM HEPES pH 7.4, 1% DMSO

SMILES: CCCN1/C(=C/C=C2\CCCC(/C=C/C3=[N+](CCC)c4ccccc4C3(C)C)=C2NCCCOC)C(C)(C)c2ccccc21.[I-] [CyN-165]
- k, rate of photobleaching [1]: 3.49e-05 s⁻¹
- ε, extinction coefficient [2, 15]: 0.352 · 10^5 cm^−1M^−1
- λabs [2, 15]: 640 nm
- λem [2, 15]: 762 nm
- φ, quantum yield ([2]; in DMSO, Cardiogreen as standard): 0.37

SMILES: CC1(C)C(/C=C/C=C/C=C/C=C2\N(CCCCS(=O)(=O)[O-])c3ccc4ccccc4c3C2(C)C)=[N+](CCCCCC(=O)ON2C(=O)CC(S(=O)(=O)[O-])C2=O)c2ccc3ccccc3c21.[Na+] (centres unmarked) [ICG-sulfo-OSu, reference compound]
- Quantum Yield (DMSO) [3]: 12%
- Quantum Yield (aqueous media) [3]: 0.4%
- ε (aqueous media) [3]: 42,000 M^−1 · cm^−1
- absorbance maximum in DMSO ([4]; 10 μM, DMSO): 780 nm
- absorbance maximum in PBS ([4]; 10 μM, PBS): 695 nm
- formation of aggregates in aqueous solution [4]: formation of aggregates
- maximum relative fluorescence units (rfu) [5]: 136 rfu

SMILES: CCCN1/C(=C/C=C2\CCCC(/C=C/C3=[N+](CCC)c4ccccc4C3(C)C)=C2N(Cc2ccccc2)C(C)=O)C(C)(C)c2ccccc21 [CyNA-374]
- staining by fluorescence microscopy [6]: stained both the Raw 264.7 cells and the mouse peritoneal cells
- λabs, absorbance maximum wavelength [7]: 806 nm
- λem, fluorescence maximum wavelength [7]: 821 nm
- φ, quantum yield [7]: 0.14
- F/Fo, fluorescent intensity at 8 hours vs 0 hours [8]: 94%
- max RFU, maximum relative fluorescence units [8]: 1224.6
- staining of activated macrophages [9]: stained both the unactivated Raw 264.7 cells and the M1 cells
- selective staining in cell imaging screen [10]: selectively stained mouse macrophages, but not mouse splenocytes

SMILES: CCCN1/C(=C/C=C2\CCCC(/C=C/C3=[N+](CCC)c4ccccc4C3(C)C)=C2N(CCCN2CCCCC2C)C(=O)CCCC(=O)ON2C(=O)CCC2=O)C(C)(C)c2ccccc21 (centres unmarked) [CyNE790]
- fluorescent properties compared to ICG and ICG-sulfo-OSu ([3]; 10 μM in PBS, 1% DMSO, excitation 760 nm, FIG. 7B): superior fluorescent properties to both ICG and ICG-sulfo-OSu
- Quantum Yield (DMSO) [3]: 13%
- Quantum Yield (aqueous media) [3]: 3.3%
- ε (aqueous media) [3]: 108,000 M^−1 · cm^−1
- formation of aggregates in aqueous solution [4]: little to no formation of aggregates
- photostability relative to ICG-sulfo-OSu ([5]; 10 μM in PBS pH 7.3, 1% DMSO): 15 fold
- maximum relative fluorescence units (rfu) [5]: 708 rfu
- fluorescence intensity and photostability after protein conjugation [11]: maintains its superior fluorescence intensity and photostability

SMILES: CCCN1/C(=C/C=C2\CCCC(/C=C/C3=[N+](CCC)c4ccccc4C3(C)C)=C2NCCCN2CCCCC2C)C(C)(C)c2ccccc21.[I-] (centres unmarked) [CyN-414]
- k, rate of photobleaching [12]: 1.75e-05 s⁻¹

SMILES: CC1(C)C(/C=C/C=C/C=C/C=C2\N(CCCCS(=O)(=O)[O-])c3ccc4ccccc4c3C2(C)C)=[N+](CCCCS(=O)(=O)[O-])c2ccc3ccccc3c21.[Na+] [Cardiogreen]
- φ of quantum yield standard [13]: 0.13

SMILES: CCCN1/C(=C/C=C2\CCCC(/C=C/C3=[N+](CCC)c4ccccc4C3(C)C)=C2N(CCCN2CCCCC2C)C(C)=O)C(C)(C)c2ccccc21.[I-] (centres unmarked) [CyNA-414]
- λabs, absorbance maximum wavelength [7]: 804 nm
- λem, fluorescence maximum wavelength [7]: 819 nm
- φ, quantum yield [7]: 0.13
- photostability under stronger irradiation in various buffers [14]: best photostability
- F/Fo, fluorescent intensity at 8 hours vs 0 hours [8]: 100
- max RFU, maximum relative fluorescence units [8]: 925.5
- k, rate of photobleaching [12]: 2.5e-06 s⁻¹
- kCyN/kCyNA ([12]; CyN-414 vs CyNA-414): 7
